This note sets out measurements from ChEMBL document CHEMBL1201862, “PubChem BioAssay data set” (2004).

In one assay the target is Cytochrome P450 3A4 (Homo sapiens, UniProt P08684).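 Also: CYP3A4 tested as one member of a cytochrome P450 panel screen.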
The target of the next assay is Cytochrome P450 2C9 (Homo sapiens, UniProt P11712).
Assay [1] has as its system Streptococcus sp. 'group A'. The experiment in a line: growth inhibition of control SK(-) GAS strain, dose response, counter-screen for streptokinase expression inhibitor project, luminescence, kanamycin, BacTiterGlo, confirmation (AID 1900). The format is functional, organism-based. (A counterscreen serves to expose hits that act by an unwanted route or on another target.)

For another assay, the system named is Streptococcus. The assay can be described thus: Group A Streptococcus viability loss, dose response, counter-screen for streptokinase expression inhibitor project, luminescence, BacTiterGlo (AID 1915).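 Also: potency for reduction of bacterial viability or growth.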 The format is functional, organism-based.
The next assay deals with T1, Streptokinase A (Streptococcus pyogenes serotype M1, UniProt P10520).
T1 sequence (P10520 whole entry): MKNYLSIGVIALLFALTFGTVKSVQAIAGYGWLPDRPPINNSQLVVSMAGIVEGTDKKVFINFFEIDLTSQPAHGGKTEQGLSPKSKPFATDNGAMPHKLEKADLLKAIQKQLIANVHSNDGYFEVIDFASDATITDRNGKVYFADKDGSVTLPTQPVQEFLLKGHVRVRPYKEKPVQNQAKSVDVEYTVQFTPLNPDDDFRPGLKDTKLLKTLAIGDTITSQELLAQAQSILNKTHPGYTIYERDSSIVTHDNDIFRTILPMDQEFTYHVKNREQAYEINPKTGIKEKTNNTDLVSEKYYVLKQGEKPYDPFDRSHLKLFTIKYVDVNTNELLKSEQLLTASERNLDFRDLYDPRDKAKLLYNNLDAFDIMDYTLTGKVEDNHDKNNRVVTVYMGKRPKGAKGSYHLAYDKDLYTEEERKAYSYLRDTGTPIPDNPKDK
The assay can be described thus: S. pyogenes streptokinase expression inhibitors, potency, dose response, plasminogen activation absorbance, OD405 (AID 1914).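 Also: secreted streptokinase activity via plasminogen activation per viability signal from cell pellet.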 The format is functional, Streptococcus pyogenes M1 GAS.

For assay [2], the target named is T2, RNA-binding protein pos-1 (Caenorhabditis elegans, UniProt G5EF15).
T2 sequence (G5EF15 whole entry): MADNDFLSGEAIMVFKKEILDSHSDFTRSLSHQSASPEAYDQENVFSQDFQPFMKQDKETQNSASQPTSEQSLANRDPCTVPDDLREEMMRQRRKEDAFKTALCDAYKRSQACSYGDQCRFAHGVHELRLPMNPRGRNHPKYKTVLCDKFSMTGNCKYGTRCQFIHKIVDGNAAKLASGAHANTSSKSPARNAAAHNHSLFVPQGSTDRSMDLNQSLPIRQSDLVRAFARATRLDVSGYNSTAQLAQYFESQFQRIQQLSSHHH
The experiment in a line: inhibitors of POS-1/mex-3 RNA binding, dose response, biochemical, fluorescence polarization (AID 1964).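 Also: purified POS-1 fused to maltose binding protein made in E. coli; potency of compounds blocking POS-1 binding to fluorescent RNA.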 Background: Fluorescence polarisation rises when a labelled molecule tumbles more slowly, as on binding a larger partner.

Assay [3] deals with T3, Zinc finger protein mex-5 (Caenorhabditis elegans, UniProt Q9XUB2).
T3 sequence (Q9XUB2 whole entry): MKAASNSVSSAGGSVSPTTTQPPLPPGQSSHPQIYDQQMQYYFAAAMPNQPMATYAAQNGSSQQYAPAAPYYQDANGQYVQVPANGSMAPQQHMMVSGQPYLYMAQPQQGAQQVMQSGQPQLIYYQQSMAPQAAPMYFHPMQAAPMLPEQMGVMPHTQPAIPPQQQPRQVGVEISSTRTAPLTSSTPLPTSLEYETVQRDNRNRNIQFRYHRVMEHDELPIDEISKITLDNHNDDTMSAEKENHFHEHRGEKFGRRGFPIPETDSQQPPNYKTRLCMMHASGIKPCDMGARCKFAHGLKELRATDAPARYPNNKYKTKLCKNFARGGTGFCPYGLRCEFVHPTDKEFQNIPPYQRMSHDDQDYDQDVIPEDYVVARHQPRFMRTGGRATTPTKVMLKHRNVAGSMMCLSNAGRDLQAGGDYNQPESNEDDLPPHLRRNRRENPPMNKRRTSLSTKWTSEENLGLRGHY
The assay can be described thus: MEX-5/TCR-2 RNA interaction inhibitors, dose response, biochemical, C. elegans, fluorescence polarization (AID 1960).

Several values for one entry are separate records, joined by “and”; a condition that tells them apart may be missing. Equal entries are not always repeated. Activity calls are given as the source filed them. Rule as the data show it, for most assays here: actives have a measured EC50 and inactives only a lower limit.

Sequence of Cytochrome P450 3A4 (P08684 whole entry): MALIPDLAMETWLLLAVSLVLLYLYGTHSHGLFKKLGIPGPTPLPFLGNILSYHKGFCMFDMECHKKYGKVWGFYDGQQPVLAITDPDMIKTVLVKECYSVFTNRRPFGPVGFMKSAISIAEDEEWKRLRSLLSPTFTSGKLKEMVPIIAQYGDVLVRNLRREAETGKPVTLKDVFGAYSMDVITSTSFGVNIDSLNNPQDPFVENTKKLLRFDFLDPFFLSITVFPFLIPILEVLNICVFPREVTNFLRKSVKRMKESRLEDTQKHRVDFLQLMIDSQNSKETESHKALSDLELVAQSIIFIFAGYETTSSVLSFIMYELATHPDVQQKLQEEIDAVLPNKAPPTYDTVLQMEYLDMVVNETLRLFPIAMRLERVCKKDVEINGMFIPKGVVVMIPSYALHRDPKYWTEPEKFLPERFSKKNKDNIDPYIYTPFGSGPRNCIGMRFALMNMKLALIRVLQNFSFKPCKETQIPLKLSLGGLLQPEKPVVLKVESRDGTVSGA
Sequence of Cytochrome P450 2C9 (P11712 whole entry): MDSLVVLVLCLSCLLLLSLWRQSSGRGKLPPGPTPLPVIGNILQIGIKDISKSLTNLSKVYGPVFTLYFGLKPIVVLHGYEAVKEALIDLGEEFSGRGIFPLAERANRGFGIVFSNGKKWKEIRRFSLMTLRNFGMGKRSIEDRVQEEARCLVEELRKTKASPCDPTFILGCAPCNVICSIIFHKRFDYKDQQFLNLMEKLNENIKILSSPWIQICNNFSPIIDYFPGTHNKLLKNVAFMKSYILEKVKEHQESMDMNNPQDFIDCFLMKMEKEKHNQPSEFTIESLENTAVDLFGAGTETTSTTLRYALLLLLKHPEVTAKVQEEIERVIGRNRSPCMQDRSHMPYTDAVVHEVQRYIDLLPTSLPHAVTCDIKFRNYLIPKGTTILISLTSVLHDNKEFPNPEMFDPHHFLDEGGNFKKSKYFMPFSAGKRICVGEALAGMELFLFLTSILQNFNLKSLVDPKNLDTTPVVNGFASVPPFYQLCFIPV

The term AC50 denotes the midpoint of the concentration-response curve, whichever way the signal moves. Take `Cc1nc2cnc(N(C)C)nc2n(CCc2ccccc2)c1=O`: the AC50 on Cytochrome P450 3A4 was 31.6 µM (inconclusive).

Take `O=c1cnc2cnc(Nc3ccccc3)nc2n1Cc1ccc(F)cc1`: the half-maximal activity concentration (AC50) at Cytochrome P450 2C9 is 7.94 µM (inconclusive).

A word on the EC50: it is the midpoint of the concentration-response curve. For the molecule `C/C(=N\Nc1nc2ccc(Cl)cc2o1)c1ccccc1`, the results for the half-maximal effective concentration (EC50) (in assay [1]; in the assay on Streptococcus; at Streptokinase A) were 6.79 µM (active), > 150 µM (not active) and > 150 µM (not active), respectively.

For the molecule `NCC[Se][Se]CCN`, the half-maximal activity concentration (AC50) at Cytochrome P450 2C9 was 0.316 µM (inconclusive).

Turning to `FC(F)(F)c1ccccc1-c1ccc2ncnc(N3CCOCC3)c2c1`, the AC50 at Cytochrome P450 3A4 was 5.01 µM (inconclusive).

For `O=C1c2ccccc2CC1(Cc1ccccc1)Cc1ccccc1`, the results for the EC50 (in assay [1]; with Streptococcus; on Streptokinase A) were 6.04 µM (active), > 150 µM (not active) and 12.9 µM (active), respectively.

Consider `O=C(OCC(=O)c1cccs1)c1cccc(C(=O)OCC(=O)c2cccs2)n1`, for which the half-maximal activity concentration (AC50) on Cytochrome P450 3A4 was 35.5 µM (inconclusive).

For the molecule `Cc1cnc(CNc2ncncc2-c2ccccc2C#N)cn1`, at Cytochrome P450 3A4, the half-maximal activity concentration (AC50) is 12.6 µM (inconclusive).

In the case of `O=C(Cc1ccc(Br)cc1)OCC(=O)c1ccc2c(c1)OCCO2`, the AC50 at Cytochrome P450 2C9 was 7.94 µM (inconclusive).

Regarding `COC(=O)c1c(NC(=O)c2ccn(C)n2)sc2c1CCC2`, the EC50 (in assay [1]; with Streptococcus; on Streptokinase A) was > 150 µM (not active) in each case.

Turning to `Cc1cc(Oc2cnn(C(C)(C)C)c(=O)c2Cl)cc(C(C)C)c1`, the EC50 in assay [1] was 6.31 µM (active); with Streptococcus it was 12.6 µM (active); on Streptokinase A it was 9.54 µM (active).

`CN1CCN(C2=Cc3ccccc3Oc3ccc(Cl)cc32)CC1`: the half-maximal activity concentration (AC50) on Cytochrome P450 3A4 was 31.6 µM (inconclusive).

With `CCOC(=O)Cc1cc(O)n2ncc(-c3cccc(Br)c3)c2n1`, the concentration for a half-maximal effect (EC50) in assay [1] was 2.14 µM (active); in the assay with Streptococcus it was 18 µM (active); at Streptokinase A, > 150 µM (not active).

For `C/C(CCN1CCc2nc(-c3ccccc3)c(-c3ccccc3)cc2C1)=N\O[C@@H](C)c1cn([C@H](CO)Cc2ccccc2)nn1`, the AC50 on Cytochrome P450 3A4 was 3.98 µM (inconclusive) and 3.16 µM (inconclusive).

As to `Cc1cc(/C=C2\C(=O)NC(=O)N(c3ccc(F)cc3)C2=O)c(C)n1-c1cccc(C(=O)O)c1`, the EC50 in assay [2] and in assay [3] was > 300 µM (not active) each time.

`COCCn1c(=O)cnc2cnc(OCc3ccccc3)nc21`: the half-maximal activity concentration (AC50) on Cytochrome P450 3A4 was 20 µM (inconclusive).

Take `Cc1cc(C)cc(N2C(=O)NC(=O)/C(=C\c3cc(C)n(C)c3C)C2=O)c1`: the EC50 was 6.75 µM (active) in assay [2] and 23.5 µM (active) in assay [3].

For `COc1ccc(-c2nc3cnc(N4CCN(C)CC4)nc3n(CCC#N)c2=O)cc1`, the AC50 on Cytochrome P450 3A4 is 39.8 µM (inconclusive).

On to `CCc1nnc(NC(=O)c2ccc(S(=O)(=O)N(C)c3ccccc3)cc2)o1`, for which the EC50 in assay [1] was 7.35 µM (active); in the assay on Streptococcus it was 8.72 µM (active); at Streptokinase A, > 150 µM (not active).

`CC(C)CN1CC[C@@]2(CCCN(S(=O)(=O)c3ccccc3)C2)C1`: the half-maximal activity concentration (AC50) at Cytochrome P450 3A4 was 5.01 µM (inconclusive).

Regarding `S=C1NC2(CCS1)Oc1ccccc1C1CC(c3ccccc3)=NN12` (stereo not drawn), the concentration for a half-maximal effect (EC50) in assay [2] and in assay [3] was > 300 µM (not active) each time.

In the case of `CC1(OC(=O)CCc2ccccc2)C(=O)C=C2C=C(C3CC3)OC=C2C1=O` (stereo not drawn), the figures for the EC50 in assay [2] and in assay [3] were 36.6 µM (active) and 30.4 µM (active), respectively.

As for `Cc1cccc(C)c1OC(=O)C(c1ccccc1)c1ccccc1`, the EC50 in assay [1] is 9.04 µM (active); in the assay with Streptococcus, > 150 µM (not active); at Streptokinase A, 17 µM (active).

Consider `CN(C)c1ccccc1CN1CCCN(Cc2ccccc2N(C)C)C1c1ccncc1`, for which the AC50 at Cytochrome P450 3A4 is 3.16 µM (inconclusive).

With `CCOC(=O)c1c(NC(C)=O)sc2c(OC)cccc12`, the AC50 on Cytochrome P450 2C9 was 5.01 µM (inconclusive).
